Measured values reported in patent publication US20250230193A1, “CYCLIC COMPOUND HAVING SELECTIVE KRAS INHIBITORY EFFECT ON HRAS AND NRAS” (CHUGAI SEIYAKU KABUSHIKI KAISHA, priority 2022, published 2025).
Where a SMILES comes first, the peptide text is derived from it. Bridges are numbered along the chain shown (N, C = ends). [ ]: non-standard residue; d: D form. The star is where a group is joined. hPhe(3-Cl-4-CF3) = N[C@@H](CCc1ccc(C(F)(F)F)c(Cl)c1)C(=O)O; NPrPhe(4-CF3) = CCCN[C@@H](Cc1ccc(C(F)(F)F)cc1)C(=O)O; NMeGly(cPent) = CN[C@H](C(=O)O)C1CCCC1; NMeD = CN[C@@H](CC(=O)O)C(=O)O; NMeL = CN[C@@H](CC(C)C)C(=O)O; Morpholide = C1CN(*)CCO1; Ac5c = NC1(C(=O)O)CCCC1; NPrGly = CCCNCC(=O)O; Sar = CNCC(=O)O

Columns and labels:
[1] = molecular target: GDP-bound NRAS wild-type protein (Homo sapiens, UniProt P01111); test: Binding to NRAS by surface plasmon resonance (SPR), Single Cycle Kinetics; conditions: SPR; for NRAS/KRAS (ratio of KD value with respect to NRAS to KD value with respect to KRAS) / NRAS/KRAS (ratio of KD value for NRAS to KD value for KRAS): GDP-bound NRAS wild-type vs GDP-bound KRAS wild-type
[2] = molecular target: GDP-bound HRAS wild-type protein (Homo sapiens, UniProt P01112); test: Binding to HRAS by surface plasmon resonance (SPR), Single Cycle Kinetics; conditions: SPR; for HRAS/KRAS (ratio of KD value with respect to HRAS to KD value with respect to KRAS) / HRAS/KRAS (ratio of KD value for HRAS to KD value for KRAS): GDP-bound HRAS wild-type vs GDP-bound KRAS wild-type
[3] = KD ratio NRAS/KRAS, GDP-bound wild-type proteins
[4] = KD ratio HRAS/KRAS, GDP-bound wild-type proteins

Sequence of GDP-bound HRAS wild-type protein (P01112 whole entry): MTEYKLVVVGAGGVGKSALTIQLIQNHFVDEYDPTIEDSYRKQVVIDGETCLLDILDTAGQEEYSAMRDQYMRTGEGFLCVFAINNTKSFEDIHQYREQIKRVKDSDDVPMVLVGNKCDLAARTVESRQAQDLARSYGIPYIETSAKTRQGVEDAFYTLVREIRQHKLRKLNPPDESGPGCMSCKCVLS
Sequence of GDP-bound NRAS wild-type protein (P01111 whole entry): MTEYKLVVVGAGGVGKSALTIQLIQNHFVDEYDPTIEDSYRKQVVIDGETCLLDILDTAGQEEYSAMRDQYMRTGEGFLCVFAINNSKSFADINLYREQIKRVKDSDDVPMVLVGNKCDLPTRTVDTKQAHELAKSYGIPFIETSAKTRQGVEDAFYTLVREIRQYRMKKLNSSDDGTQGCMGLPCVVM

CCCN(C)C(=O)[C@@H]1CC(=O)N(C)[C@@H](C2CC2)C(=O)N[C@@H]([C@@H](C)CC)C(=O)N(C)CC(=O)N(C)[C@H]2C/C=C\CCN(C2=O)[C@@H](Cc2ccc(C(F)(F)F)cc2)C(=O)N(C)CC(=O)N[C@@H](CCc2ccc(C(F)(F)F)c(OC)c2)C(=O)N2C[C@@H](C)C[C@H]2C(=O)NC2(CCC2)C(=O)N(C)[C@@H](C2CCCC2)C(=O)N1C [PP2070]
NRAS/KRAS (ratio of KD value with respect to NRAS to KD value with respect to KRAS) [1]: A (a compound having 10 or more and less than 20 is denoted as A) | HRAS/KRAS (ratio of KD value with respect to HRAS to KD value with respect to KRAS) [2]: A (a compound having 10 or more and less than 20 is denoted as A)

CC[C@H](C)[C@@H]1NC(=O)[C@H](CC2CC2)N(C)C(=O)C[C@@H](C(=O)N(C)CC)N(C)C(=O)[C@H](C2CCCC2)N(C)C(=O)C2(CCC2)NC(=O)[C@@H]2C[C@H](C)CN2C(=O)[C@H](CCc2cc(F)c(C(F)(F)F)c(F)c2)NC(=O)CN(C)C(=O)[C@H](Cc2ccc(C(F)(F)F)cc2)N2CC/C=C\C[C@@H](C2=O)N(C)C(=O)CN(C)C1=O [PP1537]
NRAS/KRAS (ratio of KD value for GDP-bound NRAS wild-type protein to KD value for KRAS) ([1]; KD ratio class): AA (a compound having 20 or more is denoted as AA) | HRAS/KRAS (ratio of KD value for GDP-bound HRAS wild-type protein to KD value for KRAS) ([2]; KD ratio class): A (a compound having 10 or more and less than 20 is denoted as A)

CC[C@H](C)[C@@H]1NC(=O)[C@H](CC(C)C)N(C)C(=O)C[C@@H](C(=O)N(C)C)N(C)C(=O)[C@H](C2CCCC2)N(C)C(=O)C2(CCC2)NC(=O)[C@@H]2C[C@H](C)CN2C(=O)[C@H](CCc2cc(F)c(C(F)(F)F)c(F)c2)NC(=O)CN(C)C(=O)[C@H](Cc2ccc(C)cc2)N2CC/C=C\C[C@@H](C2=O)N(C)C(=O)CN(C)C1=O [PP1864]
NRAS/KRAS (ratio of KD value for NRAS to KD value for KRAS) ([1]; KD ratio): A (a compound having 10 or more and less than 20 is denoted as A) | HRAS/KRAS (ratio of KD value for HRAS to KD value for KRAS) ([2]; KD ratio): B (a compound having 3 or more and less than 10 is denoted as B)

CCCO[C@@H]1C[C@H]2C(=O)NC3(CC(C)(C)C3)C(=O)N(C)[C@@H](C3CCCC3)C(=O)N(C)[C@H](C(=O)N3CCCC3)CC(=O)N(C)[C@H]3CCCc4ccc(cc4)C[C@@H](C(=O)N(C)CC(=O)N[C@@H](CCc4ccc(C(F)(F)F)c(OC)c4)C(=O)N2C1)N1CC/C=C\C[C@@H](C1=O)N(C)C(=O)CN(C)C(=O)[C@H]([C@@H](C)CC)NC3=O [PP3065]
NRAS/KRAS (ratio of KD value with respect to GDP-bound NRAS wild-type protein to KD value with respect to KRAS) [1, 3]: A (a compound having 10 or more and less than 20 is denoted as A) | HRAS/KRAS (ratio of KD value with respect to GDP-bound HRAS wild-type protein to KD value with respect to KRAS) [2, 4]: B (a compound having 3 or more and less than 10 is denoted as B)

CCO[C@@H]1C[C@H]2C(=O)NC3(CCC3)C(=O)N(C)[C@@H](C3CCCC3)C(=O)N(C)[C@H](C(=O)N(C)C)CC(=O)N(C)[C@@H](C)C(=O)N[C@@H]([C@@H](C)CC)C(=O)N(C)CC(=O)N(C)[C@H]3CCCCN(C3=O)[C@@H](Cc3ccc(C(F)(F)F)cc3)C(=O)N(C)CC(=O)N[C@@H](CCc3cc(F)c(C(F)(F)F)c(F)c3)C(=O)N2C1 [PP0587]
NRAS/KRAS (ratio of KD value with respect to GDP-bound NRAS wild-type protein to KD value with respect to KRAS) ([1]; KD ratio NRAS/KRAS): C (A compound having a KD ratio of 0.1 or more and less than 3 is denoted as C) | HRAS/KRAS (ratio of KD value with respect to GDP-bound HRAS wild-type protein to KD value with respect to KRAS) ([2]; KD ratio HRAS/KRAS): C (A compound having a KD ratio of 0.1 or more and less than 3 is denoted as C)

CCCOC[C@H]1C(=O)N[C@@H]([C@@H](C)CC)C(=O)N(C)CC(=O)N(C)[C@H]2C/C=C\CCN(C2=O)[C@@H](Cc2ccc(C(F)(F)F)cc2)C(=O)N(C)CC(=O)N[C@@H](CCc2cc(F)c(C(F)(F)F)c(F)c2)C(=O)N2C[C@H](OCC)C[C@H]2C(=O)NC2(CCC2)C(=O)N(C)[C@@H](C2CCCC2)C(=O)N(C)[C@H](C(=O)N(C)CCC)CC(=O)N1C [PP1668]
NRAS/KRAS (ratio of KD value for NRAS to KD value for KRAS) ([1]; KD ratio): A (a compound having 10 or more and less than 20 is denoted as A) | HRAS/KRAS (ratio of KD value for HRAS to KD value for KRAS) ([2]; KD ratio): A (a compound having 10 or more and less than 20 is denoted as A)

CCC[C@H]1C(=O)N[C@@H]([C@@H](C)CC)C(=O)N(C)CC(=O)N(C)[C@H]2C/C=C\CCN(C2=O)[C@@H](Cc2ccc(C(F)(F)F)cc2)C(=O)N(C)CC(=O)N[C@@H](CCc2cc(F)c(C(F)(F)F)c(F)c2)C(=O)N2C[C@H](OCC)C[C@H]2C(=O)NC2(CC(F)(F)C2)C(=O)N(C)[C@@H](C2CCCC2)C(=O)N(C)[C@H](C(=O)N(C)CCC)CC(=O)N1C [PP1736]
NRAS/KRAS (ratio of KD value for NRAS to KD value for KRAS) ([1]; KD ratio): A (a compound having 10 or more and less than 20 is denoted as A) | HRAS/KRAS (ratio of KD value for HRAS to KD value for KRAS) ([2]; KD ratio): A (a compound having 10 or more and less than 20 is denoted as A)

CCC[C@H]1C(=O)N[C@@H]([C@@H](C)CC)C(=O)N(C)CC(=O)N(C)[C@H]2C/C=C\CCN(C2=O)[C@@H](Cc2ccc(C)cc2)C(=O)N(C)CC(=O)N[C@@H](CCc2cc(F)c(C(F)(F)F)c(F)c2)C(=O)N2C[C@H](OCC)C[C@H]2C(=O)NC2(CC(C)(C)C2)C(=O)N(C)[C@@H](CC(C)C)C(=O)N(C)[C@H](C(=O)N(C)C)CC(=O)N1C [PP2995]
NRAS/KRAS (ratio of KD value with respect to GDP-bound NRAS wild-type protein to KD value with respect to KRAS) [1, 3]: A (a compound having 10 or more and less than 20 is denoted as A) | HRAS/KRAS (ratio of KD value with respect to GDP-bound HRAS wild-type protein to KD value with respect to KRAS) [2, 4]: A (a compound having 10 or more and less than 20 is denoted as A)

CCO[C@@H]1C[C@H]2C(=O)NC3(CCC3)C(=O)N(C)[C@@H](C3CCCC3)C(=O)N(C)[C@H](C(=O)N3CCOCC3)CC(=O)N(C)[C@@H](CC(C)C)C(=O)N[C@@H]([C@@H](C)CC)C(=O)N(C)CC(=O)N(C)[C@H]3CCCCCN(C3=O)[C@@H](Cc3nccs3)C(=O)N(C)CC(=O)N[C@@H](CCc3cc(F)c(C(F)(F)F)c(F)c3)C(=O)N2C1 [PP0923]
NRAS/KRAS (ratio of KD value with respect to NRAS to KD value with respect to KRAS) ([1]; KD ratio): B (a compound having 3 or more and less than 10 is denoted as B) | HRAS/KRAS (ratio of KD value with respect to HRAS to KD value with respect to KRAS) ([2]; KD ratio): B (a compound having 3 or more and less than 10 is denoted as B)

CCOC[C@H]1C(=O)N[C@@H]([C@@H](C)CC)C(=O)N(C)CC(=O)N(C)[C@H]2C/C=C\CCN(C2=O)[C@@H](Cc2ccc(C)cc2)C(=O)N(C)CC(=O)N[C@@H](CCc2ccc(C(F)(F)F)c(Cl)c2)C(=O)N2C[C@@H](C)C[C@H]2C(=O)NC2(CC(C)(C)C2)C(=O)N(C)[C@@H](C2CCCC2)C(=O)N(C)[C@H](C(=O)N(C)CC)CC(=O)N1C [PP2451]
NRAS/KRAS (ratio of KD value with respect to NRAS to KD value with respect to KRAS) [1]: A (a compound having 10 or more and less than 20 is denoted as A) | HRAS/KRAS (ratio of KD value with respect to HRAS to KD value with respect to KRAS) [2]: A (a compound having 10 or more and less than 20 is denoted as A)

CC[C@H](C)[C@@H]1NC(=O)[C@H](CC(C)C)N(C)C(=O)C[C@@H](C(=O)N2CCOCC2)N(C)C(=O)[C@H](C2CCCC2)N(C)C(=O)C2(CCC2)NC(=O)[C@@H]2CCCN2C(=O)[C@H](CCc2cc(F)c(C(F)(F)F)c(F)c2)NC(=O)CN(C)C(=O)[C@H](Cc2ccc(C(F)(F)F)cc2)N2CCCC[C@@H](C2=O)N(C)C(=O)CN(C)C1=O [PP0560]
NRAS/KRAS (ratio of KD value with respect to GDP-bound NRAS wild-type protein to KD value with respect to KRAS) ([1]; KD ratio NRAS/KRAS): B (a compound having 3 or more and less than 10 is denoted as B) | HRAS/KRAS (ratio of KD value with respect to GDP-bound HRAS wild-type protein to KD value with respect to KRAS) ([2]; KD ratio HRAS/KRAS): B (a compound having 3 or more and less than 10 is denoted as B)

CCCOC[C@H]1C(=O)N[C@@H]([C@@H](C)CC)C(=O)N2CCC[C@H]2C(=O)N(C)[C@H]2C/C=C\CCN(C2=O)[C@@H](Cc2ccc(C)cc2)C(=O)N(C)CC(=O)N[C@@H](CCc2ccc(C(F)(F)F)c(OC)c2)C(=O)N2C[C@@H](C)C[C@H]2C(=O)N(C)C2(CCC2)C(=O)N(C)[C@@H](C2CCCC2)C(=O)N(C)[C@H](C(=O)N(C)C)CC(=O)N1C [PP2369]
NRAS/KRAS (ratio of KD value with respect to NRAS to KD value with respect to KRAS) [1]: A (a compound having 10 or more and less than 20 is denoted as A) | HRAS/KRAS (ratio of KD value with respect to HRAS to KD value with respect to KRAS) [2]: B (a compound having 3 or more and less than 10 is denoted as B)

CCCN1C(=O)C[C@@H](C(=O)N(C)C)N(C)C(=O)[C@H](C2CCCC2)N(C)C(=O)C2(CCC2)NC(=O)[C@@H]2C[C@@H](OCC)CN2C(=O)[C@H](CCc2cc(F)c(C(F)(F)F)c(F)c2)NC(=O)CN(C)C(=O)[C@H](Cc2ccc(C(F)(F)F)cc2)N2CC/C=C\C[C@@H](C2=O)N(C)C(=O)CN(C)C(=O)[C@H]([C@@H](C)CC)NC(=O)[C@@H]1CC(C)C [PP1825]
NRAS/KRAS (ratio of KD value for NRAS to KD value for KRAS) ([1]; KD ratio): A (a compound having 10 or more and less than 20 is denoted as A) | HRAS/KRAS (ratio of KD value for HRAS to KD value for KRAS) ([2]; KD ratio): A (a compound having 10 or more and less than 20 is denoted as A)

CCCN1CC(=O)NC2(CCCC2)C(=O)N(C)[C@@H](C2CCCC2)C(=O)N(C)[C@H](C(=O)N2CCOCC2)CC(=O)N(C)[C@@H](CC(C)C)C(=O)N[C@@H]([C@@H](C)CC)C(=O)N(C)CC(=O)N(C)CC(=O)N(CCC)[C@@H](Cc2ccc(C(F)(F)F)cc2)C(=O)N(C)CC(=O)N[C@@H](CCc2ccc(C(F)(F)F)c(Cl)c2)C1=O [PP0267] ([NMeL]I[Sar][Sar][NPrPhe(4-CF3)][Sar][hPhe(3-Cl-4-CF3)][NPrGly][Ac5c][NMeGly(cPent)][NMeD]-Morpholide; lactam N-11)
NRAS/KRAS (ratio of KD for GDP-bound NRAS wild-type to KD for KRAS) ([1]; KD ratio NRAS/KRAS): B (a compound having 3 or more and less than 10 is denoted as B) | HRAS/KRAS (ratio of KD for GDP-bound HRAS wild-type to KD for KRAS) ([2]; KD ratio HRAS/KRAS): B (a compound having 3 or more and less than 10 is denoted as B)
